Key:
Type in all cases: cell-based
P2Y11 receptor [1] = target: T1, P2Y11 receptor (Homo sapiens, UniProt Q96G91, DUP173-173); experiment: Inositol trisphosphate (IP3) accumulation in 1321N1 astrocytoma cells transfected with the new receptor; conditions: for IP3 accumulation in response to nucleotide: 100 μM, pool of G418-resistant P2Y11-transfected 1321N1 clones; for Agonist efficacy compared with ATP: same for the phosphoinositide and cAMP pathways; for Effect on IP3 accumulation in concentration-action curves: large range of concentrations, FIG. 4A
T1 construct: expressed in transfected cells; host or cells: 1321N1 astrocytoma cells and CHO-K1 cells, G418-selected, pEFIN3 bicistronic vector
T1 sequence (Q96G91 with tags, fused parts or gaps DUP173-173): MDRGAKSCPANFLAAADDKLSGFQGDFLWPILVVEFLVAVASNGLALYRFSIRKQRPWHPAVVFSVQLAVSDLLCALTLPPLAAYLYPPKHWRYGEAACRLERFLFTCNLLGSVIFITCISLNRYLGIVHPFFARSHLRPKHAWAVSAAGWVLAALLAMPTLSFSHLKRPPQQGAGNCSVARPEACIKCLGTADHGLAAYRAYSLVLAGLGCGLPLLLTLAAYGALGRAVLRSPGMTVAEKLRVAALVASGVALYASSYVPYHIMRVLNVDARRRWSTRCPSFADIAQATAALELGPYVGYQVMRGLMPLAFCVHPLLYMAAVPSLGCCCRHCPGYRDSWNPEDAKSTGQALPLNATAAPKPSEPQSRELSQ
Description: (§1) The complete sequence of the new receptor according to the invention was subcloned between the Hind III and Nhe I sites of the bicistronic pEFIN3 expression vector. 1321N1 and CHO-K1 cells were transfected with the recombinant pEFIN3 plasmid or with the plasmid alone using the calcium phosphate precipitation method as described (19). The transfected cells were selected with 400 μg/ml G418 in complete medium (10% FCS, 100 units/ml penicillin, 100 μg/ml streptomycin and 2.5 μg/ml amphotericin B in Duibecco's modified Eagle's medium (DMEM)) two days after transfection and maintained in the same medium (10).
1321N1 cells were labelled for 24 hours with […] [^3H] inositol in inositol free DMEM containing 5% FCS, antibiotics, amphotericin, sodium pyruvate and 400 μg/ml G418. Cells were washed twice with Krebs-Ringer Hepes (KRH) buffer of the following composition (124 mM NaCl, 5 mM KC1, 1.25 mM MgSO4, 1.45 mM CaCl2, 1.25 mM KH2PO4, 25 mM Hepes (pH:7.4) and 8 mM glucose) and incubated in the same medium for 30 min. The cells were then challenged by various nucleotides for 30 s. The incubation was stopped by the addition of an ice cold 3% perchioric acid solution. IP were extracted and separated on Dowex columns as previously described (20).
(§2) The complete sequence of the new receptor was introduced in the pEFIN3 expression vector in order to transfect the 1321N1 astrocytoma cell line, used previously to characterize several P2Y subtypes (6, 10, 12). The pool of G418-resistant clones was tested for its functional response to several nucleotides.

[2] = system: CHO-K1 cells transfected with the vector alone; experiment: cAMP in CHO-K1 cells transfected with the vector alone or untransfected; conditions: 100 μM
Description: as §1
Stably transfected CHO-K1 or 1321N1 cell lines were spread on Petri dishes (150.000 cells per dish) and cultured in Ham's F12 or DMEM medium containing 10% FCS, antibiotics, amphotericin, sodium pyruvate and 400 μg/ml G418. Cells were preincubated for 30 min in KRH buffer with Rolipram (25 μM) and incubated for different times in the presence of the agonists (15 min in most experiments). The incubation was stopped by the addition of 1 ml HC1 0.1 M. The incubation medium was dried up, resuspended in water and diluted as required. Cyclic AMP was quantified by radioimmunoassay after acetylation as previously described (21). […]

P2Y11 receptor [3] = target: T1, P2Y11 receptor; experiment: cAMP accumulation in CHO-K1 cells transfected with the new receptor; conditions: for cAMP content in response to nucleotide: 100 μM, pool of G418 resistant P2Y11-transfected CHO-K1 clones; for Inhibition of the cAMP response to ATP (30 μM): indomethacin 10 μg/ml from 30 min before, 8 (p-sulfophenyl) theophylline 100 μM
Description: as §1
(§3) Stably transfected CHO-K1 or 1321N1 cell lines were spread on Petri dishes (150.000 cells per dish) and cultured in Ham's F12 or DMEM medium containing 10% FCS, antibiotics, amphotericin, sodium pyruvate and 400 μg/ml G418. Cells were preincubated for 30 min in KRH buffer with Rolipram (25 μM) and incubated for different times in the presence of the agonists (15 min in most experiments). The incubation was stopped by the addition of 1 ml HC1 0.1 M. The incubation medium was dried up, resuspended in water and diluted as required. Cyclic AMP was quantified by radioimmunoassay after acetylation as previously described (21).
(§4) A much lower but significant endogeneous response due to the degradation of adenine nucleotides into adenosine was also obtained in the 1321N1 cells transfected with the vector alone. […] We therefore used CHO-K1 cells in order to characterize the coupling of the new receptor to the cAMP pathway. A pool of G418 resistant CHO-K1 clones was first tested for its response to several nucleotides at a concentration of 100 μM. […] The rank order of potency was the same as in the inositol phosphate study on 1321N1 cells.

P2Y11 receptor [4] = target: T1, P2Y11 receptor; experiment: cAMP measurement in 1321N1 cells transfected with the new receptor
Description: as §3, §4

P2Y11 receptor [5] = target: T1, P2Y11 receptor; experiment: [Ca2+]i measurements on 1321N1 transfected cells; conditions: 10 μM
Description: as §2, with “nucleotides. […] The effect of ADP and 2MeSADP were minimal.” for “nucleotides.”

Compound	cAMP content in response to nucleotide (P2Y11 receptor [3])	IP3 accumulation in response to nucleotide (P2Y11 receptor [1]; 30 s)	further results
Pertussis toxin			Effect on the ATP response (IP3) (P2Y11 receptor [1]; pertussis toxin 50 ng/ml, 24 h pretreatment): no effect
Nc1ncnc2c1ncn2[C@@H]1O[C@H](COP(=O)(O)OP(=O)(O)OP(=O)(O)O)[C@@H](O)[C@H]1O [ATP]	strong increase in the cAMP content	strong inositol trisphosphate (IP3) accumulation	cAMP content in vector-alone cells [2]: inactive; cAMP response after short stimulation (P2Y11 receptor [3]; after 2 min of stimulation, CHO-K1): significant cAMP response; cAMP response (P2Y11 receptor [4]): strong cAMP increase; [Ca2+]i response (P2Y11 receptor [5]): response
Nc1ncnc2c1ncn2[C@@H]1O[C@H](COP(=O)(O)OP(=O)(O)OP(=O)(O)OP(=O)(O)OC[C@H]2O[C@@H](n3cnc4c(N)ncnc43)[C@H](O)[C@@H]2O)[C@@H](O)[C@H]1O [AP4A]		inactive	
CSc1nc(N)c2ncn([C@@H]3O[C@H](COP(=O)(O)OP(=O)(O)OP(=O)(O)O)[C@@H](O)[C@H]3O)c2n1 [2MeSATP, 2-methylthio-ATP]			EC50 (P2Y11 receptor [1]; P2Y11-transfected 1321N1 cells, 30 s, means±range of two independent experiments): 118 ± 15 µM; Agonist efficacy compared with ATP (P2Y11 receptor [1]): same maximal effect than ATP but presented a lower potency
O=c1ccn([C@@H]2O[C@H](COP(=O)(O)OP(=O)(O)O)[C@@H](O)[C@H]2O)c(=O)[nH]1 [UDP]	completely inactive	inactive	
Cn1c(=O)c2[nH]c(-c3ccc(S(=O)(=O)O)cc3)nc2n(C)c1=O [8 (p-sulfophenyl) theophylline]			Inhibition of the cAMP response to ATP (30 μM) (P2Y11 receptor [3]): inhibited neither
CSc1nc(N)c2ncn([C@@H]3O[C@H](COP(=O)(O)OP(=O)(O)O)[C@@H](O)[C@H]3O)c2n1 [2MeSADP, 2-methylthio-ADP]			Effect on IP3 accumulation in concentration-action curves (P2Y11 receptor [1]): minimal; Agonist efficacy compared with ATP (P2Y11 receptor [1]): almost inactive
Nc1ncnc2c1ncn2[C@@H]1O[C@H](COP(=O)(O)OP(=O)(O)O)[C@@H](O)[C@H]1O [ADP]	completely inactive	inactive	Effect on IP3 accumulation in concentration-action curves (P2Y11 receptor [1]): minimal; [Ca2+]i response (P2Y11 receptor [5]): inactive
COc1ccc2c(c1)c(CC(=O)O)c(C)n2C(=O)c1ccc(Cl)cc1 [indomethacin, Indomethacin]			Inhibition of the cAMP response to ATP (30 μM) (P2Y11 receptor [3]): inhibited neither
Nc1ncnc2c1ncn2[C@@H]1O[C@H](CO)[C@@H](O)[C@H]1O [adenosine]	completely inactive	inactive	
O=c1ccn([C@@H]2O[C@H](COP(=O)(O)OP(=O)(O)OP(=O)(O)O)[C@@H](O)[C@H]2O)c(=O)[nH]1 [UTP]	completely inactive	inactive	
Nc1ncnc2c1ncn2[C@@H]1O[C@H](COP(=O)(O)O)[C@@H](O)[C@H]1O [AMP]	completely inactive	inactive	
Nc1ncnc2c1ncn2[C@@H]1O[C@H](COP(=O)(O)OP(=O)(O)OP(=O)(O)OP(=O)(O)OP(=O)(O)OP(=O)(O)OC[C@H]2O[C@@H](n3cnc4c(N)ncnc43)[C@H](O)[C@@H]2O)[C@@H](O)[C@H]1O [AP6A]		inactive	

From patent US7288631B2 (Euroscreen, s.a., priority 1997, dated 2007)
